The test concerns vascular smooth muscle cell (SMC). Put plainly: Effect on proliferation of vascular smooth muscle cell (SMC), XTT assay. The test is classed as cell-based. To be noted: 1 uM; XTT absorbance at 450 nm at 1, 4 and 7 days; versus untreated control (FIG. 1). As for the experimental part:
As cells used in a cell culture, the vascular smooth muscle cell (SMC) which is a smooth muscle cell, and the human umbilical vein endothelial cell (HUVEC) which is the cell for promoting vascular re-endothelialization were purchased from Korea Cell Line Bank, respectively. The cell culture was performed by culturing the vascular smooth muscle cell (SMC) and the human umbilical vein endothelial cell (HUVEC) in Dulbecoco's modified eagle medium (DMEM) with 10% fetal bovine serum (FBS) under conditions of 37° C. and 5% CO2. […]
5×10^4 of SMC cells cultured according to Example 2 were cultured in the 24-well cell culture plate and then treated with 1 uM of the peptide compound prepared by Example 2 (hereinafter, referred to as ‘EVR-P’). […] After the reaction, 200 ul of the culture medium was transferred from each well to a 96 well cell culture dish, and degree of color change was measured from absorbance at a 450 nm wavelength by a spectroscopy.
5×10^4 of SMC cells cultured according to Example 2 were cultured in the 24-well cell culture plate and then treated with 1 uM of the known Everolimus (EVR)(LC Laboratories). […] After the reaction, 200 ul of the culture medium was transferred from each well to the 96 well cell culture dish, and degree of color change was measured from absorbance at a 450 nm wavelength by a spectroscopy.

One molecule from patent US20160229893A1, “Novel Peptide Compound for Inhibiting Restenosis and Promoting Re-Endothelialization and Method for Preparing the Same” (Chonnam National University Hospital, priority 2014, published 2016) can be followed below.

Structures are written as SMILES.

Consider `CO[C@H]1C[C@@H]2CC[C@@H](C)[C@@](O)(O2)C(=O)C(=O)N2CCCC[C@H]2C(=O)O[C@H]([C@H](C)C[C@@H]2CC[C@@H](OCCO)[C@H](OC)C2)CC(=O)[C@H](C)/C=C(\C)[C@@H](O)[C@@H](OC)C(=O)[C@H](C)C[C@H](C)/C=C/C=C/C=C/1C` [EVR, Everolimus], for which the SMC cell proliferation result is reported as “cell proliferation was inhibited”.
